Counter-ions that a name gives are not always drawn.
Experiments:
DAT [1] = target: T1, DAT (Rattus norvegicus, UniProt P23977); assay: In vitro preincubation of striatal synaptosomes with MDMA: [3H]DA uptake and WIN35428 binding; format: biochemical; conditions: 10 μM inhibitor 5 min, then 10 μM MDMA 30 min at 37° C.
T1 construct: from tissue; host or cells: striatum of male Sprague-Dawley rats (synaptosomes, P2)
Method: (§1) Uptake of [^3H]DA was determined in striatal synaptosomes prepared according to the method described by Kokoshka et al. (1998). Briefly, fresh striatal tissue was homogenized in cold 0.32 M sucrose and centrifuged (800×g for 12 min; 4° C.). The supernatant (S1) was then centrifuged (22,000×g for 15 min; 4° C.), and the resulting pellet (P2) was resuspended in ice-cold modified Kreb's buffer (in mM: 126 NaCl, 4.8 KCl, 1.3 CaCl2, 16 sodium phosphate, 1.4 MgSO4, 11 dextrose, 1-ascorbic acid, pH 7.4). Assays were conducted in Kreb's buffer. Each assay tube contained synaptosomal tissue (i.e., resuspended P2 obtained from 1.5 mg of original wet weight striatal tissue) and 1 μM pargyline. Nonspecific values were determined in the presence of 100 μM cocaine. After preincubation of assay tubes for 10 min at 37° C., assays were initiated by the addition of [^3H]DA (0.5 nM final concentration). Samples were incubated at 37° C. for 3 min. Samples were then filtered through Whatman GF/B filters (Brandel, Gaithersburg, Md.) soaked previously in 0.05% polyethylenimine. Filters were washed rapidly 3 times with 3 ml of ice-cold 0.32 M sucrose using a Brandel filtering manifold. […] Remaining resuspended P2 samples were assayed for protein concentrations according to the method of Lowry et al. (1951). In MDMA preincubation experiments, samples were preincubated with 10 μM MDMA for 30 min at 37° C. After 30 min, resuspended P2 fractions were “washed” by centrifugation (22,000×g for 15 min; 4° C.). The resulting pellet (P3) was then resuspeded in ice-cold Kreb's buffer, and once again centrifuged (22,000×g for 15 min; 4° C.) to obtain a P4 pellet that was subsequently resuspended and assayed. [^3H]WIN35428 binding (0.5 nM final concentration) was conducted in phosphate-buffered 0.32 M sucrose, pH 7.4, with synaptosomes obtained from 2 mg (original wet weight) of striatal tissue per reaction tube, and samples were incubated on ice for 2 hr. Samples were then filtered through Whatman GF/B filters (Brandel, Gaithersburg, Md.) soaked previously in 0.05% polyethylenimine. Filters were washed rapidly 3 times with 3 ml of ice-cold 0.32 M sucrose using a Brandel filtering manifold. […] Remaining resuspended P2 samples were assayed for protein concentrations according to the method of Lowry et al. (1951).

VMAT-2 [2] = assay: VMAT-2 immunoreactivity in striatal subcellular fractions (P2, P3, S3) of treated rats (Western blot); format: in vivo, rat; conditions: 1 h
Method: Striatal synaptosomes were prepared from rats decapitated 1 h after treatment as previously described (Fleckenstein et al., 1997). Briefly, striatal tissue was homogenized in cold 0.32 M sucrose and centrifuged (800×g for 12 min; 4° C.). The supernatant (S1) was then centrifuged (22,000×g for 15 min; 4° C.) and the resulting pellet (P2, synaptosomal fraction) was resuspended at 50 mg original wet weight/ml in cold water and a portion saved for western blot analysis. The remainder of the synaptosomal sample was centrifuged for 20 min at 22,000×g (4° C.) to pellet lysed synaptosomal membranes (P3, synaptosomal membrane fraction), which were then resuspended at 50 mg original wet weight/ml and saved for western blot analysis. Prior to resuspension of the plasmalemmal membrane fraction the supernatant (S3, vesicle-enriched fraction) was removed and saved for western blot analysis.
Binding of VMAT-2 antibody was performed using 60 μl aliquots of synaptosomal (P2), synaptosomal membrane (P3), or vesicle-enriched (S3) preparations. Each aliquot was added to 20 μl of loading buffer (final concentration: 2.25% sodium dodecyl sulfate, 18% glycerol, 180 mM Tris base (pH 6.8), 10% β-mercapto-ethanol and bromophenol blue), boiled for 10 min, and loaded on a 10% sodium dodecyl sulfate-polyacrylamide gel. Following electrophoresis, samples were transferred to polyvinlylidene difluoride membrane, blocked with 5% nonfat dry milk in Tris-buffered saline with tween (250 mM NaCl, 50 mM Tris pH 7.4 and 0.05% Tween 20), and probed with the VMAT-2 antibody (provided by J.W.H.). Bound antibody was visualized with HRP-conjugated goat anti-rabbit antibody, and antigen-antibody complexes were visualized by chemiluminescence. Multiple exposures of blots were obtained to ensure development within the linear range of the film. Bands on blots were quantified by densitometry using Kodak 1D image-analysis software.
Fresh striatal tissue was homogenized in ice-cold 0.32 M sucrose and centrifuged (800×g for 12 min; 4° C.). […] Resuspended tissue was aliquoted into two test tubes. One aliquot was centrifuged (22,000×g for 10 min; 4° C.) to separate plasmalemmal membranes from the synaptic vesicle-enriched fraction. The resulting supernatant (S3) contained the vesicular subcellular fraction of interest, and the pellets (P3; plasmalemmal membrane fraction) were resuspended in cold distilled deionized water.
VMAT-2 antibody was purchased from Chemicon (Temecula, Calif.; AB1767). Binding of VMAT-2 antibody was performed using 60 μl of whole synaptosomal, plasmalemmal membrane or vesicle subcellular fractions. Samples were added to 20 μl of loading buffer (final concentration: 2.25% SDS, 18% glycerol, 180 mM Tris Base (pH 6.8), 10% […] and bromophenol blue). Approximately 60 μg protein of the whole synaptosomal fraction, 40 μg protein of the plasmalemmal membrane fraction or 20 μg protein of the vesicle subcellular fraction was loaded per well in a 10% SDS-polyacrylamide gel. Following electrophoresis, samples were transferred to polyvinylidene difluoride hybridization transfer membrane (New England Nuclear (NEN), Boston, Mass.). All subsequent incubation steps were performed at room temperature while shaking. Each membrane was first blocked for 2 h in 100 ml of tris buffer saline with tween (TBST; 250 mM NaCl, 50 mM tris pH 7.4 and 0.05% tween 20) containing 5% nonfat dry milk. Each membrane was then incubated with anti-VMAT-2 antibody (1:4000 dilution) in 13 ml of TBST with 5% milk for 1 h and then washed 5 times (2×1 min wash; 3×5 min wash) in 70 ml TBST with 5% milk.

VMAT-2 [3] = target: VMAT-2 (Mus musculus, UniProt Q8BRU6); assay: Vesicular [3H]dopamine uptake in striatal vesicles prepared from treated mice; format: in vivo; conditions: antagonist 2 mg/kg i.p. prior to each methamphetamine injection (4 x 10 mg/kg s.c.), 1 h
Method: (A. E. Fleckenstein, et al., J. Pharmacol Exp Ther. (1997) 282:834-838). Briefly, fresh tissue was homogenized in ice-cold 0.32 M sucrose. The homogenate was centrifuged (800×g for 12 min; 4° C.), and the supernatant (S1) was carefully removed and centrifuged (22,000×g for 15 min; 4° C.) to obtain the synaptosomal-containing pellet (P2). The resulting P2 were resuspended and homogenized in ice-cold distilled deionized water. Osmolarity was restore by addition 25 mM HEPES and 100 mM potassium tartrate (final concentration; pH 7.5 at 4° C. respectively). […] The resultant S3 removed and MgSO4 added (final concentration of [1 mM] pH 7.5 at 4° C.) and centrifuged at 100,000×g for 45 min. The final P4 were resuspended at 50 mg/ml (original tissue wet weight).

VMAT-2 [4] = target: T2, VMAT-2 (Rattus norvegicus, UniProt Q01827); assay: [3H]DHTBZ binding in purified striatal vesicles prepared from treated rats; conditions: rats
Method: Synaptic vesicles were obtained from synaptosomes prepared from rat striatum as described above. Synaptosomes were resuspended and homogenized in cold distilled deionized water. Osmolarity was restored by addition of HEPES and potassium tartrate 245 and 100 mM (final concentrations; pH 7.5), respectively. Samples were centrifuged for 20 min at 20,000×g (4° C.) to remove lysed synaptosomal membranes. MgSO4 (1 mM, final concentration) was added to the supernatant, which was then centrifuged for 45 min at 100,000×g (4° C.). The resulting vesicular pellet was resuspended in wash buffer at a concentration of 50 mg/ml (original tissue weight). […] Binding of [^3H]DHTBZ was performed as described by Teng et al. (1998). Briefly, 200 μl of the synaptic vesicle preparation (˜6 μg of protein) was incubated in wash buffer in the presence of [^3H]DHTBZ (2 nM final concentration) for 10 min at 25° C. The reaction was terminated by addition of 1 ml of cold wash buffer and rapid filtration through Whatman GF/F filters soaked in 0.5% polyethylenimine. Filters were washed three times with ice-cold wash buffer. Nonspecific binding was determined by coincubation with 20 μM tetrabenazine. All protein concentrations were determined by a BioRad protein assay (Bio-Rad, Richmond, Calif.).
Binding of [^3H]DHTBZ was performed as described by Teng et al. (1998). Briefly, 200 μl (˜6 μg protein) of the synaptic vesicle preparation was incubated in wash buffer in the presence of [^3H]DHTBZ (2 nM final concentration except in kinetic analyses wherein 0.25-500 nM DHTBZ was employed) for 10 m in at 25° C. The reaction was terminated by addition of 1 ml cold wash buffer and rapid filtration through Whatman GF/F filters soaked in 0.5% polyethylenimine. Filters were washed three times with ice-cold wash buffer. Radioactivity trapped in filters was counted using a liquid scintillation counter. Nonspecific binding was determined by coincubation with 20 μM TBZ. All protein concentrations were determined by a Bio-Rad protein assay (Bio-Rad Inc.).
Binding of[^3H]DHTBZ was performed as described by Teng et al. (1998). Briefly, 200 μl (˜5 μg protein) of the synaptic vesicle preparation was incubated in wash buffer in the presence of [^3H]DHTBZ (2 nM final concentration except in kinetic analyses wherein 0.25-500 nM DHTBZ was employed) for 10 m in at 25° C. The reaction was terminated by addition of 1 ml cold wash buffer and rapid filtration through Whatman GF/F filters soaked in 0.5% polyethylenimine. Filters were washed three times with ice-cold wash buffer. Radioactivity trapped in filters was counted using a liquid scintillation counter. Nonspecific binding was determined by coincubation with 20 μM TBZ. All protein concentrations were determined by a Bio-Rad protein assay (Bio-Rad Inc.).

VMAT-2 [5] = target: T2, VMAT-2; format: in vivo; parameters: purified striatal vesicles prepared from treated rats; from tissue; host or cells: striatum of male Sprague-Dawley rats (synaptic vesicles; P2, P3, S3 fractions)
Method: Osmolarity was restored by addition of N-(2-hydroxyethyl)-piperazine-N′-2-ethanesulfonic acid (HEPES) and potassium tartrate 25 mM and 100 mM (final concentrations; pH 7.5 at 4° C.), respectively.

[6] = Striatal tissue DA content of treated rats (HPLC); format: in vivo, rat
Method: On the day of the assay, frozen tissue samples were thawed, sonicated for 3-5 s in tissue buffer (0.05 M sodium phosphate/0.03 M citric acid buffer with 15% methanol (v/v); pH 2.78), and centrifuged for 15 min at 22,000×g. Tissue pellets were retained and protein determined according to the method of Lowry et al. (1951). The supernatant was centrifuged a second time for 15 min at 22,000×g. 20 μl of supernatant were injected onto a high performance liquid chromatograph system coupled to an electrochemical detector (+0.73 V) for separation and quantitation of dopamine levels using the method of Chapin et al. (1986).

[7] = Vesicular DA content in purified striatal vesicles of treated rats; format: in vivo, rat; conditions: rats, reserpine 10 mg/kg i.p. 6 and 1 h before decapitation
Method: Purified striatal vesicles were prepared as described above. The resulting vesicular pellet was sonicated for approximately 5 sec in cold tissue buffer (0.05 M sodium phosphate/0.03 M citric acid buffer with 15% methanol (v/v); pH 2.5) at a concentration of 100 mg/ml (original wet weight of tissue), and centrifuged for 15 min at 22,000×g. Tissue pellets were retained and protein was determined according to the method of Lowry et al. (1951). 40 μl of supernatant was injected onto a high performance liquid chromatograph system coupled to an electrochemical detector (+0.73 V) for separation and quantitation of DA levels using the method of Chapin et al. (1986).

[8] = target: T3, plasmalemmal DA transporter (DAT) (Rattus norvegicus, UniProt P23977); assay: Plasmalemmal [3H]DA uptake in striatal synaptosomes prepared from treated rats; format: in vivo; conditions: αMT 150 mg/kg i.p. 5 and 1 h prior to and 3 h after first MDMA injection, MDMA 4 x 10 mg/kg s.c.
T3 construct: from tissue; host or cells: striatum of male Sprague-Dawley rats (synaptosomes, P2)
Method: Uptake of [^3H]DA was determined in striatal synaptosomes prepared according to the method described by Kokoshka et al. (1998). Briefly, fresh striatal tissue was homogenized in cold 0.32 M sucrose and centrifuged (800×g for 12 min; 4° C.). The supernatant (S1) was then centrifuged (22,000×g for 15 min; 4° C.), and the resulting pellet (P2) was resuspended in ice-cold modified Kreb's buffer (in mM: 126 NaCl, 4.8 KCl, 1.3 CaCl2, 16 sodium phosphate, 1.4 MgSO4, 11 dextrose, 1-ascorbic acid, pH 7.4). Assays were conducted in Kreb's buffer. Each assay tube contained synaptosomal tissue (i.e., resuspended P2 obtained from 1.5 mg of original wet weight striatal tissue) and 1 μM pargyline. Nonspecific values were determined in the presence of 100 μM cocaine. After preincubation of assay tubes for 10 min at 37° C., assays were initiated by the addition of [^3H]DA (0.5 nM final concentration). Samples were incubated at 37° C. for 3 min. Samples were then filtered through Whatman GF/B filters (Brandel, Gaithersburg, Md.) soaked previously in 0.05% polyethylenimine. Filters were washed rapidly 3 times with 3 ml of ice-cold 0.32 M sucrose using a Brandel filtering manifold. […] Remaining resuspended P2 samples were assayed for protein concentrations according to the method of Lowry et al. (1951). In MDMA preincubation experiments, samples were preincubated with 10 μM MDMA for 30 min at 37° C. After 30 min, resuspended P2 fractions were “washed” by centrifugation (22,000×g for 15 min; 4° C.). The resulting pellet (P3) was then resuspeded in ice-cold Kreb's buffer, and once again centrifuged (22,000×g for 15 min; 4° C.) to obtain a P4 pellet that was subsequently resuspended and assayed. [^3H]WIN35428 binding (0.5 nM final concentration) was conducted in phosphate-buffered 0.32 M sucrose, pH 7.4, with synaptosomes obtained from 2 mg (original wet weight) of striatal tissue per reaction tube, and samples were incubated on ice for 2 hr. Samples were then filtered through Whatman GF/B filters (Brandel, Gaithersburg, Md.) soaked previously in 0.05% polyethylenimine. […]

DAT [9] = target: T1, DAT; assay: [3H]WIN35428 binding in striatal synaptosomes prepared from treated rats; format: in vivo; conditions: αMT 150 mg/kg i.p., MDMA 4 x 10 mg/kg s.c.
Method: as §1

T2 sequence (Q01827 whole entry): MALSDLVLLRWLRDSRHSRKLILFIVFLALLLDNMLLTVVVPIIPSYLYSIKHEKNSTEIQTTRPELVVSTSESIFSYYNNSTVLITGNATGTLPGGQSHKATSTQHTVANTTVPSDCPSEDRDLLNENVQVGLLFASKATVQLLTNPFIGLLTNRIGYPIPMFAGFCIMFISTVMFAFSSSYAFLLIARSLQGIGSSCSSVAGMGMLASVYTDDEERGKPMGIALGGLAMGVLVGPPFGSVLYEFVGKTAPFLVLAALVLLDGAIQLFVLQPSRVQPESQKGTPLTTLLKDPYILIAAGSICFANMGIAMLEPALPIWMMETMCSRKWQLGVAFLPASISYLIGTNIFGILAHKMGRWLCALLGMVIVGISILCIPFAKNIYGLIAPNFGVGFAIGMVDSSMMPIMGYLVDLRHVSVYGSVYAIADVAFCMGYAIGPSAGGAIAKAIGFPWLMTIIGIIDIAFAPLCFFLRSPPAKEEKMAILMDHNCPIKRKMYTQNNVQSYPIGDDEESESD
T1 sequence (P23977 whole entry): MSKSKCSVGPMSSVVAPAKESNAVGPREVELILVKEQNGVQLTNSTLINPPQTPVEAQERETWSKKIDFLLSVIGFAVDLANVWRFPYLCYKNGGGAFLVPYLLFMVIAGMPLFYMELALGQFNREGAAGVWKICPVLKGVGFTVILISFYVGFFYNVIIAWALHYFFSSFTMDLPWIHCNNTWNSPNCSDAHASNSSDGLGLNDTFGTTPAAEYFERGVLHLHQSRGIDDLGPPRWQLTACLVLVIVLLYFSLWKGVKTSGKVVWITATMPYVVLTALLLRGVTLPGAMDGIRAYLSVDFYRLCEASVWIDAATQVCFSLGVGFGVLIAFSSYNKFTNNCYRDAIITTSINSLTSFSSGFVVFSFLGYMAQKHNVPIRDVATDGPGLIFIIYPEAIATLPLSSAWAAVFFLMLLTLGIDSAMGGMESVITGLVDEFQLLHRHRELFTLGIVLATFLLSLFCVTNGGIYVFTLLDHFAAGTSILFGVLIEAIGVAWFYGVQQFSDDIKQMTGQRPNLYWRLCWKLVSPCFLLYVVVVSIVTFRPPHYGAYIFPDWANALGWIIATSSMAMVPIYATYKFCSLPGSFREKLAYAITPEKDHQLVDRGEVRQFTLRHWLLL
VMAT-2 (Mus musculus, UniProt Q8BRU6), sequence (Q8BRU6 whole entry): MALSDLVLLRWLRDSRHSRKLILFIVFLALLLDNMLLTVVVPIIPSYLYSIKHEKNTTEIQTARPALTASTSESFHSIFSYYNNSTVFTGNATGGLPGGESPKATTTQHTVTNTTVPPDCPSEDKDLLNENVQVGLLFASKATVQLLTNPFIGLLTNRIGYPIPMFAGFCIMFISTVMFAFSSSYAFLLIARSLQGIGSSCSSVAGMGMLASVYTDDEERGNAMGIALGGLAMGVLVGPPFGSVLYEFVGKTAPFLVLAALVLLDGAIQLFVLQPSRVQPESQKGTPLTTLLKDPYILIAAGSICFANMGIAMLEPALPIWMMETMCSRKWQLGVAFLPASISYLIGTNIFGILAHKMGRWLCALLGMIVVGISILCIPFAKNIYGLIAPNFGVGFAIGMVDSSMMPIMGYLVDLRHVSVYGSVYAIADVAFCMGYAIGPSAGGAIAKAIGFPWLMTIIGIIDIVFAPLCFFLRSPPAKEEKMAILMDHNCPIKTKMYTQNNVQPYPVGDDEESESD
T3 sequence (P23977 whole entry): as the sequence (P23977 whole entry) above

## CCCCCCCCCCCCC(=O)N1CCCCC1CNC(=O)[C@@H](N)CCCCN.Cl.Cl (some centres unmarked) [NPC15437]
DAT [1]
  effect of PKC inhibitor pretreatment on the MDMA-induced deficit in vitro: attenuated

## CC(=O)O.Cn1cc(C2=C(c3cn(CCCN)c4ccccc34)C(=O)NC2=O)c2ccccc21 [Ro31-7549, 2-[1-3(Aminopropyl)indol-3-yl]-3(1-methylindol-3-yl)maleimide, acetate]
DAT [1]
  effect of PKC inhibitor pretreatment on the MDMA-induced deficit in vitro: attenuated

## COC(=O)[C@H]1[C@@H](OC(=O)c2ccccc2)C[C@@H]2CC[C@H]1N2C [cocaine, (−)cocaine hydrochloride]
VMAT-2 [2]; cocaine 30 mg/kg i.p. single
  decrease in VMAT-2 immunoreactivity in the P3 (synaptosomal membrane) fraction: 33%
  increase in VMAT-2 immunoreactivity in the S3 (vesicle-enriched) fraction: 80%

## CCc1cc(Cl)c(OC)c(C(=O)NC[C@@H]2CCCN2CC)c1O [eticlopride, (−)-Eticlopride hydrochloride]
VMAT-2 [3]
  effect of antagonist pretreatment on the methamphetamine-induced decrease in vesicular dopamine uptake: attenuated
VMAT-2 [2]; antagonist 0.5 mg/kg i.p. 15 min prior to MPD 40 mg/kg s.c.
  effect of antagonist pretreatment on the MPD-induced increase in VMAT-2 immunoreactivity in the vesicular subcellular fraction: completely prevented
VMAT-2 [4]; antagonist 0.5 mg/kg i.p.
  [3H]DHTBZ binding after antagonist per se: did not affect
VMAT-2 [4]; antagonist 0.5 mg/kg i.p. 15 min prior to MPD 40 mg/kg s.c., 1 h
  effect of antagonist pretreatment on the MPD-induced increase in [3H]DHTBZ binding: completely prevented
VMAT-2 [5]; rat, in vivo
  effect of antagonist pretreatment on the METH-induced decrease in vesicular [3H]DA uptake: attenuated
  effect of eticlopride on the MDMA-induced decrease in vesicular DA uptake: attenuated
VMAT-2 [5]; rats, antagonist 0.5 mg/kg i.p.
  vesicular [3H]DA uptake after antagonist per se: did not affect
VMAT-2 [5]; rats, antagonist 0.5 mg/kg i.p. 15 min prior to MPD 40 mg/kg s.c., 1 h
  effect of antagonist pretreatment on the MPD-induced increase in vesicular [3H]DA uptake: attenuated

## COC(=O)[C@H]1[C@H]2C[C@@H]3c4[nH]c5cc(OC)ccc5c4CCN3C[C@H]2C[C@@H](OC(=O)c2cc(OC)c(OC)c(OC)c2)[C@@H]1OC [reserpine]
[6]; rats, reserpine 10 mg/kg i.p. 6 and 1 h before decapitation
  depletion in total striatal tissue DA levels: > 98%
[7]
  striatal vesicular DA levels: below the detection limit

## CC(N)(Cc1ccc(O)cc1)C(=O)O.Cl (stereo not drawn) [αMT, α-methyl-p-tyrosine hydrochloride]
[8]
  effect of αMT pretreatment on the MDMA-induced decrease in DAT activity: did not affect
DAT [9]
  effect of αMT pretreatment on the MDMA-induced deficit in WIN35428 binding: did not prevent
[6]; αMT-treated rats, 150 mg/kg i.p.
  striatal DA levels: 10.1±2.0 pg/1 μg protein

— patent US20060241082A1, “Modulating vesicular monoamine transporter trafficking and function: a novel approach for the treatment of parkinson's disease” (priority 2002, published 2006)
